# Experimental data taken from ChEMBL document CHEMBL1909046, “DrugMatrix in vitro pharmacology data”.
# How the values were obtained:
# [1] = biological target: C-C chemokine receptor type 5 (Homo sapiens, UniProt P51681); type: cell membranes, Membrane; settings: hek293; also: in other assays of this panel Not Active means under 50% inhibition at 10 µM
# [2] = biological target: Mitogen-activated protein kinase 14 (Homo sapiens, UniProt Q16539); parameters: species or system Escherichia coli;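 also: inhibition of p38alpha enzyme activity in a biochemical kinase assay, with myelin basic protein serving as substrate; in other assays of this panel Not Active means under 50% inhibition at 10 µM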
# [3] = DRUGMATRIX: Glutamate, Kainate radioligand binding (ligand: [3H] Kainic acid); type: cell membranes, Rattus norvegicus, Wistar, Brain, Membrane; settings: Not Active = under 50% inhibition at 10 µM
# [4] = biological target: T1, Alpha-2A adrenergic receptor (Homo sapiens, UniProt P08913); type: cell membranes, Sf9, Membrane; also: in other assays of this panel Not Active means under 50% inhibition at 10 µM
# T1 sequence (P08913 whole entry): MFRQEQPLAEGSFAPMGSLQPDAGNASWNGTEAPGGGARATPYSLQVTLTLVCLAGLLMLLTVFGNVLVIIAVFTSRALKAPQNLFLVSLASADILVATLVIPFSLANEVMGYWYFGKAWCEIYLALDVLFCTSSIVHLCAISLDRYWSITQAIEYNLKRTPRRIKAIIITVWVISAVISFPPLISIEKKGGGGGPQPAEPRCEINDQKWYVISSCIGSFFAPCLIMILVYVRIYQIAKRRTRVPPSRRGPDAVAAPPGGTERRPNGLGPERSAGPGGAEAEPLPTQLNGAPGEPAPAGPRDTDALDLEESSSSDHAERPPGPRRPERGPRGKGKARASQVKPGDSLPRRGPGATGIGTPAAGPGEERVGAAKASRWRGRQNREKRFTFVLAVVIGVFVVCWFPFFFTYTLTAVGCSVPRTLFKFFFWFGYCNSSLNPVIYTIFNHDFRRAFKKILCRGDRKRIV
# Substance-K receptor = biological target: T2, Substance-K receptor (Homo sapiens, UniProt P21452); type: cell membranes, CHO, Membrane; settings: cho; also: in other assays of this panel Not Active means under 50% inhibition at 10 µM
# T2 sequence (P21452 whole entry): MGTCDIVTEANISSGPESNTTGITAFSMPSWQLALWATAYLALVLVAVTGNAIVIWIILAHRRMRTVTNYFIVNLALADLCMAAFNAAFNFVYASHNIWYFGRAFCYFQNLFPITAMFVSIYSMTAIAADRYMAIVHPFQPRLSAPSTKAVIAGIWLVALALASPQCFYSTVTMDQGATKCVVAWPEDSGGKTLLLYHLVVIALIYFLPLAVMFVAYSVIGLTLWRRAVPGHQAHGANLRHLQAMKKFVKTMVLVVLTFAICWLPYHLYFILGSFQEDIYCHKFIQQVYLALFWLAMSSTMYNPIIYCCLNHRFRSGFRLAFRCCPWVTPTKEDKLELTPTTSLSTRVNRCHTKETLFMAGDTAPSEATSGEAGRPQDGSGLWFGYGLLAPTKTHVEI
# [5] = biological target: C-C chemokine receptor type 2 (Homo sapiens, UniProt P41597); type: cell membranes, Membrane; settings: cho-k1; also: in other assays of this panel Not Active means under 50% inhibition at 10 µM
# C-C chemokine receptor type 2, sequence (P41597 whole entry): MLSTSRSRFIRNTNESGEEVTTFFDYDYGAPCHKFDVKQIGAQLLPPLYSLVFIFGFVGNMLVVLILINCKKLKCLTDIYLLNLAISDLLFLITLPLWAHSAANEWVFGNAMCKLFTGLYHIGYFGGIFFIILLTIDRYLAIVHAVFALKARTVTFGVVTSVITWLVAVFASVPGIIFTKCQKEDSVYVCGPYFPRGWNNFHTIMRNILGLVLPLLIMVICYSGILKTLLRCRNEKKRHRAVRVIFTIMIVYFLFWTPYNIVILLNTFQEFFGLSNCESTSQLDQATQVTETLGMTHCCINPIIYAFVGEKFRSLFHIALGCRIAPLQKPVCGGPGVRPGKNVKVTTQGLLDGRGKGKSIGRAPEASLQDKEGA
# Mitogen-activated protein kinase 14, sequence (Q16539 whole entry): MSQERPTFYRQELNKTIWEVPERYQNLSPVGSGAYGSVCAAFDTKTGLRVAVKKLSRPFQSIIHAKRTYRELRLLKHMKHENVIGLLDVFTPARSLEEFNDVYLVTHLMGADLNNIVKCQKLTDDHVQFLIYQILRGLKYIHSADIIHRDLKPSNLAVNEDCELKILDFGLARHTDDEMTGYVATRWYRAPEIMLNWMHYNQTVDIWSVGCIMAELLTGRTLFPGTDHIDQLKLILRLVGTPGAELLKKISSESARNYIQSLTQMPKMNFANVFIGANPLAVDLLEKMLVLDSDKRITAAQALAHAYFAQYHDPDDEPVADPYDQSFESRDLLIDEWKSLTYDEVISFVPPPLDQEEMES
# C-C chemokine receptor type 5, sequence (P51681 whole entry): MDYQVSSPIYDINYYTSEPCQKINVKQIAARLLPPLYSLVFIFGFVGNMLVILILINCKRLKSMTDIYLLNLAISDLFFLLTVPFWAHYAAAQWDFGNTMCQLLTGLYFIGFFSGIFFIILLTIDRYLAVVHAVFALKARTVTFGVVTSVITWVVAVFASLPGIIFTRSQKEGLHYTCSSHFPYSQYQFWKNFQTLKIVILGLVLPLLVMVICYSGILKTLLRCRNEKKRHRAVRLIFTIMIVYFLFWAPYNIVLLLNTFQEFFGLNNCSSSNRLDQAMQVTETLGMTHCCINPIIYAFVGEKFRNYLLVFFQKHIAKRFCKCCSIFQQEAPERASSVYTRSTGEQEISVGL
compound,measurement,setting,value
COc1cc2nc(N3CCN(C(=O)C4CCCO4)CC3)nc(N)c2cc1OC (stereo not given) [TERAZOSIN],IC50,[1],Not Active
same,IC50,[2],Not Active
same,IC50,[3],Not Active
same,Ki,[3],Not Active
same,IC50,[4]; read-out: IC50,13800 nM
same,Ki,[4]; read-out: Ki,5190 nM
same,IC50,Substance-K receptor,Not Active
same,IC50,[5],Not Active
CN(C/C=C/C#CC(C)(C)C)Cc1cccc2ccccc12 [TERBINAFINE],IC50,[1],Not Active
same,IC50,[2],Not Active
same,IC50,[3],Not Active
same,Ki,[3],Not Active
same,IC50,[4]; read-out: IC50,5700 nM
same,Ki,[4]; read-out: Ki,2140 nM
same,IC50,Substance-K receptor,Not Active
same,IC50,[5],Not Active
CCCCNc1ccc(C(=O)OCCN(C)C)cc1 [TETRACAINE],IC50,[1],Not Active
same,IC50,[2],Not Active
same,IC50,[3],Not Active
same,Ki,[3],Not Active
same,IC50,[4]; sf9,Not Active
same,IC50,Substance-K receptor,Not Active
same,IC50,[5],Not Active
Cn1c(=O)c2nc[nH]c2n(C)c1=O.O [THEOPHYLLINE],IC50,[1],Not Active
same,IC50,[2],Not Active
same,IC50,[3],Not Active
same,Ki,[3],Not Active
same,IC50,[4]; sf9,Not Active
same,IC50,Substance-K receptor,Not Active
same,IC50,[5],Not Active
CS(=O)(=O)c1ccc([C@@H](O)[C@@H](CO)NC(=O)C(Cl)Cl)cc1 [THIAMPHENICOL],IC50,[1],Not Active
same,IC50,[2],Not Active
same,IC50,[3],Not Active
same,Ki,[3],Not Active
same,IC50,[4]; sf9,Not Active
same,IC50,Substance-K receptor,Not Active
same,IC50,[5],Not Active
CCN(CC)CCNC(=O)c1cc(S(C)(=O)=O)ccc1OC [TIAPRIDE],IC50,[1],Not Active
same,IC50,[2],Not Active
same,IC50,[3],Not Active
same,Ki,[3],Not Active
same,IC50,[4]; read-out: IC50,2080 nM
same,Ki,[4]; read-out: Ki,779 nM
same,IC50,Substance-K receptor,Not Active
same,IC50,[5],Not Active
NC1CCN(c2nc3c(cc2F)c(=O)c(C(=O)O)cn3-c2ccc(F)cc2F)C1 (stereo not given) [TOSUFLOXACIN],IC50,[1],Not Active
same,IC50,[2],Not Active
same,IC50,[3],Not Active
same,Ki,[3],Not Active
same,IC50,[4]; sf9,Not Active
same,IC50,Substance-K receptor,Not Active
same,IC50,[5],Not Active
O=C(Nc1ccc(Br)cc1)c1cc(Br)cc(Br)c1O [TRIBROMSALAN],IC50,[1],Not Active
same,IC50,[2]; read-out: IC50,715 nM
same,IC50,[3],Not Active
same,Ki,[3],Not Active
same,IC50,[4]; sf9,Not Active
same,IC50,Substance-K receptor,Not Active
same,IC50,[5],Not Active
CC(c1cc2ccccc2s1)N(O)C(N)=O (stereo not given) [ZILEUTON],IC50,[1],Not Active
same,IC50,[2],Not Active
same,IC50,[3],Not Active
same,Ki,[3],Not Active
same,IC50,[4]; sf9,Not Active
same,IC50,Substance-K receptor,Not Active
same,IC50,[5],Not Active
MANGANESE CHLORIDE ANHYDROUS,IC50,[1],Not Active
same,Ki,[1],Not Active
same,IC50,[2],Not Active
same,Ki,[2],Not Active
same,IC50,[3],Not Active
same,Ki,[3],Not Active
same,IC50,[4]; sf9,Not Active
same,Ki,[4]; sf9,Not Active
same,IC50,Substance-K receptor,Not Active
same,Ki,Substance-K receptor,Not Active
same,IC50,[5],Not Active
same,Ki,[5],Not Active
SODIUM ORTHOVANAD,IC50,[1],Not Active
same,Ki,[1],Not Active
same,IC50,[2],Not Active
same,Ki,[2],Not Active
same,IC50,[3],Not Active
same,Ki,[3],Not Active
same,IC50,[4]; sf9,Not Active
same,Ki,[4]; sf9,Not Active
same,IC50,Substance-K receptor,Not Active
same,Ki,Substance-K receptor,Not Active
same,IC50,[5],Not Active
same,Ki,[5],Not Active
